Results on four compounds are retold here after patent US20130143884A1, “4-[2-[ [5-METHYL-1-(2-NAPHTALENYL)-1H-PYRAZOL-3-YL]OXY]ETHYL] MORPHOLINE SALTS” (priority 2009, published 2013).

Data set [1] deals with sigma 1 (σ-1) site (Homo sapiens, UniProt Q99720). To be noted: cited from earlier work.
Data set [2] addresses sigma 2 (σ-2) site (Homo sapiens, UniProt Q5BJF2). To be noted: cited from earlier work.
A short description of data set [3]: pKa. In kind it is physicochemical.
The conditions of data set [4]: treatment and prevention of chronic and acute pain, particularly neuropathic pain; reported in WO 2006/021462; cited from earlier work.
Data set [5] is described as follows: Thermodynamic solubility at pH 7.4. The class given is physicochemical. As for the experimental part:
General protocol for thermodynamic solubility at pH 7.4 and pH 2 is described below.
A) Thermodynamic Solubility at pH 7.4
Buffer phosphates pH 7.4 was prepared as follows: • A solution 25 mM of Na2HPO4.12H2O (for 1 l of water, weight 8.96 g) was prepared • A solution 25 mM de KH2PO4 (for 1 l of water weight 3.4 g) was prepared. • 812 ml of disodium phosphate solution+182 ml of potassium phosphate solution were mixed and pH checked according was 7.4.
Samples were equilibrated using: • Stirrer Thermomixer Control of Eppendorf a 25° C. y 1250 rpm • pHmeter with combined electrode of pH semimicro
2 mg in an HPLC vial (by duplicate) was weight and 1 ml of buffer was added. The vial was maintained at 25° C., in the stirrer Thermomixer Comfort., during 24 hours. Centrifugation at 4000 rpm followed during 15 min.
The resulting upper layer was collected with a glass pipette and transferred to the HPLC vials. Again centrifuged and the injector programmed at 2.7 mm high.
Sol.A: 2 mg in 5 ml methanol (400 ug/ml)
Sol.B: 1 ml Sol.A to 10 ml with methanol (40 ug/ml)
Sol.C: 5 ml Sol.B to 50 ml with methanol (4 ug/ml)
Sol.D: 4 ml Sol.C to 10 ml with methanol (1.6 ug/ml)
Sol.E: 5 ml Sol.D to 25 ml with methanol (0.32 ug/ml)
10 μl of all prepared solutions were injected, beginning with the more diluted standard. Blanks were also injected, for checking the absence of contamination.
The standard calibration curve was done (see FIG. 29). Consider Y=area y X=μg injected standard
10 μl of problem compound solution were injected, by duplicate and the average peak area (if quantifiable) interpolated in the standard curve (see Tables 9, 10 and 11 and example below).
Chromatographic Conditions • Column: XBridge C18 (or similar) 2.5 μm 4.6×50 mm • Temperature: 35° C. • Mobile phase: ACN/ammonium bicarbonate 10 mM. • Gradient: 0-3.5 min: from 15% ACN to 95% ACN • 3.5-5 min: 95% ACN • 5-6 min: 95 a 15% ACN • 6-8 min: 15% ACN • Flow: 1.5 ml/min • Detection: around the UV absorption maximum

Data set [6] can be described thus: Pharmacokinetics in rats after single oral administration (plasma, HPLC with fluorescence detection). In kind it is in vivo. To be noted: Wistar Hannover; rat plasma, single oral 25 mg/kg (expressed as compound 63). As for the experimental part: The pharmacokinetics of Example 1 in Wistar Hannover rats following a single oral administration of 25 mg/kg (expressed as compound 63) was tested. For this purpose, plasma samples were collected at different time points and analyzed using HPLC (High pressure liquid chromatography) method with fluorescence detection.
Two groups were used in this test. Group 1 received vehicle and Group 2 received Example 1 at 25 mg/kg with an administration volume of 10 mL/kg.
Blood samples were extracted from the retro-orbital zone at the following time points: pre-dose, 15 min, 30 min, 1 h, 1.5 h, 2 h, 3 h, 4 h, 5 h, 6 h, 8 h and 24 h. Blood was then transferred into heparin-containing plastic tubes. Plasma was obtained by centrifugation at approximately 3000 rpm for 10 min at 4° C. These plasma samples were labeled and frozen at a temperature of approximately −65° C. until analysis.
Samples were analyzed by a previously validated analytical method. Briefly, rat plasma samples were thawed at room temperature and centrifuged at 3000 rpm for 10 min at approximately 4° C. 300 μl of plasma samples were placed into vials and spiked with 30 μl of internal standard working solution. The vials were capped and mixed thoroughly. […]
The peaks corresponding to Example 1 and its internal standard were quantified by fluorescence detection at an excitation wavelength of 260 nm and an emission wavelength of 360 nm. […]
The peak plasma concentration values (Cmax) and the time to reach such concentration (tmax) were obtained directly from the experimental data. The elimination constant (kel) was calculated by linear regression of the last phase of the curve (log concentration vs. time). The elimination half-life (t1/2) was determined with the expression t1/2=0.693/kel. The area under the curve of plasma levels vs. time from zero to the last time determined (AUC0-t) was calculated be means of the trapezoidal method. The area under the curve of plasma levels vs time from zero to infinity (AUC0-∞) was calculated with the expression: AUC0-∞=AUC0-t+Clast/kel, where Clast is the plasma concentration at the last time measured.

Data set [7] in a line: Descriptive solubility in water and solvents. In kind it is physicochemical.
A short description of data set [8]: Dissolution and absorption profile in vivo. To be noted: compared with its related base.
A short description of data set [9]: Solubility of the salts in crystallization screening solvents. To be noted: initial screening solvents; for the maleate except ethyl acetate. The class given is physicochemical.
Procedure: The product obtained in the initial preparation was solved in the minimum amount of crystallization solvent at its boiling temperature or at a maximum of 75° C. […] The mother liquors were cooled to room temperature and kept for 24 hours.
Initially, a crystallization screening of compound 63 with the ten counterions depicted in table 2 was performed, at a 40 mg scale, in the following ten solvents: acetone, ethyl acetate, chloroform, N,N-dimethylformamide, methanol, ethanol, isopropanol, 2-butanol, acetonitrile and tetrahydrofuran. The procedure started with the preparation of equimolar mixtures, from known concentration methanol dissolutions, of compound 63 and the different acid counterions. The resulting crude, after the methanol evaporation, was crystallized from the hot solvents formerly mentioned. Different crystallization strategies were used depending on the solubility of each acid and compound 63 mixture, and therefore the solids were obtained using different procedures. For some acids, the mixture was not soluble in the hot crystallization solvent, obtaining a slurry solid. In other cases, the solid crystallized during room temperature cooling of the solution, or after several days at 4° C. or at −18° C. Finally, in some crystallization attempts, the solid was obtained after slow evaporation of the solvent at room temperature. […]

“And” between values parts separate entries of the source, which are not always exact repeats. Equal values may be shown once. Where a name gives a salt, the structure may show the parent alone. Read-outs that look alike come from different tables or passages of the source.

As usually defined, the pKa is the negative logarithm of the acid dissociation constant. Broadly, the solubility (thermodynamic) is solubility found after equilibrating the solid with the medium. Usually AUC(0-inf) stands for the area under the concentration-time curve extrapolated to infinity. Lower therefore signals low exposure. As usually defined, the AUC(0-t) is the area under the concentration-time curve up to a stated or last time point. A low value points to low exposure. A word on the Cmax: it is the highest concentration seen after dosing.

Sequence of sigma 1 (σ-1) site (Q99720 whole entry): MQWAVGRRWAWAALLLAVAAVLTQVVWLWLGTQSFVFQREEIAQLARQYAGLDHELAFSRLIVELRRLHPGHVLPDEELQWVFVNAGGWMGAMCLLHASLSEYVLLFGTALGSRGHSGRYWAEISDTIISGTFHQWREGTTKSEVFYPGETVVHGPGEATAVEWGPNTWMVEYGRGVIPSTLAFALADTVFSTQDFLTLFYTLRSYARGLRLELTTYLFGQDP
Sequence of sigma 2 (σ-2) site (Q5BJF2 whole entry): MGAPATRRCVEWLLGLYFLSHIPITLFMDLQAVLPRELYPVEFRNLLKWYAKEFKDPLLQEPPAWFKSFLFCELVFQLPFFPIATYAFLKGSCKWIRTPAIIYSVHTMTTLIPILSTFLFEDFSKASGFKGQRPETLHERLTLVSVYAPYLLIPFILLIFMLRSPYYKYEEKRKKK

SKF 10047 [reference compound]: in [1], the “Affinity for the sigma 1 (σ-1) site” value is listed as “nanomolar”. In addition, the “Affinity for the sigma 2 (σ-2) site” value in [2] is on record as “micromolar”.

On to `Cc1cc(OCCN2CCOCC2)nn1-c1ccc2ccccc2c1` [compound 63, 4-[2-[[5-methyl-1-(2-naphthalenyl)-1H-pyrazol-3-yl]oxy]ethyl]morpholine], for which, in data set [3], the pKa was found to be 6.7. For the same compound, in [1] (reported in WO 2006/021462), the Sigma-1 receptor activity entry is “highly selective sigma-1 (σ-1) receptor antagonist”. Besides, the Analgesic activity result in [4] is “strong analgesic activity”.

`Cc1cc(OCCN2CCOCC2)nn1-c1ccc2ccccc2c1` [Example 1, 4-[2-[[5-methyl-1-(2-naphthalenyl)-1H-pyrazol-3-yl]oxy]ethyl]morpholine hydrochloride]: in data set [5] (aqueous buffer, thermodynamic from solid, pH=7.4, phosphate buffer 50 mM, 25° C., 24 hours), the solubility (thermodynamic) at 24 h came to 227 µg/mL. The “Conc. (single injections)” value in data set [5] (pH 7.4, duplicate samples, duplicate injections, hydrochloride) is 225.5 µg/mL and 229.0 µg/mL and 229.3 µg/mL and 225.3 µg/mL. In data set [5] (pH 7.4, mean of 4 injections), the “Conc. Mean” value amounted to 227.262 µg/mL. In data set [6], this compound came in with an AUC(0-inf) of 1250 ng·h/mL, an AUC(0-t) of 1220 ng·h/mL and a Cmax of 1.15 µg/mL. In [3] (read-out: pKa), the pKa amounted to 6.73. For the same compound, the “Solubility in 1N hydrochloric acid” value in data set [7] (1N hydrochloric acid) is reported as “freely soluble”. Moreover, in data set [7] (1N sodium hydroxide), the “Solubility in 1N sodium hydroxide” value is “practically insoluble”. Also, the Solubility in acetone entry in data set [7] (acetone) is “slightly soluble”. Also, the “Solubility in dimethyl sulphoxide” value in [7] (dimethyl sulphoxide) was “freely soluble”. In addition, the Solubility in ethanol entry in data set [7] (ethanol) is “sparingly soluble”. The “Solubility in ethyl acetate” value in data set [7] (ethyl acetate) is “practically insoluble”. The Solubility in methanol entry in data set [7] (methanol) is on record as “freely soluble”. The Solubility in water result in [7] (water) is “very soluble”. The “Dissolution and absorption profile in vivo” value in data set [8] is “better dissolution and absorption profile in vivo than its related base”.

As to `CCS(=O)(=O)O.Cc1cc(OCCN2CCOCC2)nn1-c1ccc2ccccc2c1` [ethanesulfonate salt], the “Solubility in all the solvents assayed (first set of ten solvents)” value in data set [9] is more than 200000 µg/mL.
